Data on 23 compounds can be found in PubChem BioAssay AID449767 (Vanderbilt High Throughput Screening Facility, 2010).

The source made the active and inactive calls. How the calls were made is not given here.

The target of this assay is Muscarinic acetylcholine receptor M4 (Rattus norvegicus) (UniProt P08485). The experiment in a line: M4 PAM leftward shift of ACh curve – rM4 cells, calcium, ACh concentration-response fold shift (AID 449767). Conditions: acetylcholine CRC fold-shift, at 30 µM, hits give high values.
Sequence of Muscarinic acetylcholine receptor M4 (Rattus norvegicus) (P08485 whole entry, looked up): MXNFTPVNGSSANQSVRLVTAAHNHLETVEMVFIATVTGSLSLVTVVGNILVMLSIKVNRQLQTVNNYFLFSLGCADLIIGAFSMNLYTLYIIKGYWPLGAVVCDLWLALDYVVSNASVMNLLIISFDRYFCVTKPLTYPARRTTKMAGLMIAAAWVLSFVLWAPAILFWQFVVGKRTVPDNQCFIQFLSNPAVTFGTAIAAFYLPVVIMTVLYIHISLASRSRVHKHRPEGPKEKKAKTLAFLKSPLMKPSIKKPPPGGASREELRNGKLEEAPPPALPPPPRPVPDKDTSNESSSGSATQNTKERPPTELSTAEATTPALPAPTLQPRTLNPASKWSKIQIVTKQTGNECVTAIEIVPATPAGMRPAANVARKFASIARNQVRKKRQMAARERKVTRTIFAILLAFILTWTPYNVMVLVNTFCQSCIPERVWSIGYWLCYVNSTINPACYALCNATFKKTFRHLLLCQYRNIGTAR
For `Cc1cc(OCCN2CCOCC2)nc2sc(C(=O)Nc3ccccc3)c(N)c12`, the fold shift is 51.
As for `COc1ccc(CNC(=O)c2sc3nc(OCc4ccncc4)cc(C)c3c2N)cc1`, the figure is 50.
As for `COc1ccc(CNC(=O)c2sc3nc(C)cc(C)c3c2N)cc1`, the figure is 42; as for `Cc1cc(OCCCN(C)C)nc2sc(C(=O)NC3COC3)c(N)c12`, 7; as for `COc1ccc(CNC(=O)c2sc3nc(OCCN4CCOCC4)cc(C)c3c2N)cc1`, 37.
The value for `Cc1cc(OCc2ccccn2)nc2sc(C(=O)NCc3cccc(F)c3F)c(N)c12` was 28.
Regarding `Cc1cc(C)c2c(N)c(C(=O)NCc3ccc4c(c3)OCO4)sc2n1`, the fold shift was 40.
As for `Cc1cc(OCc2ccncc2)nc2sc(C(=O)NCc3cc(F)ccc3F)c(N)c12`, the figure is 64.
The value for `COc1ccc(CNC(=O)c2sc3nc(OCc4ccccn4)cc(C)c3c2N)cc1` was 4; that for `COc1ccc(CNC(=O)c2sc3nc(OCCCN(C)C)cc(C)c3c2N)cc1` was < 1 (inactive); that for `Cc1cc(C)c2c(N)c(C(=O)NCc3ccc(Cl)cc3)sc2n1` was 48.
As for `Cc1cc(OCc2ccncc2)nc2sc(C(=O)NCc3cccc(F)c3F)c(N)c12`, the figure is 36; as for `Cc1cc(C)c2c(N)c(C(=O)NCc3cccc(F)c3F)sc2n1`, 18; as for `COc1ccc(CNC(=O)c2sc3nc(OCCN4CCCC4)cc(C)c3c2N)cc1`, 25.
With `Cc1cc(C)c2c(N)c(C(=O)NCc3ccccc3F)sc2n1`, the fold shift is 16.
In the case of `COCCCNC(=O)c1sc2nc(OCCN3CCOCC3)cc(C)c2c1N`, the fold shift is 67.
As for `Cc1cc(OCCN2CCOCC2)nc2sc(C(=O)NC(C)(C)C)c(N)c12`, the figure is 62; as for `Cc1cc(OCCN2CCOCC2)nc2sc(C(=O)NC3COC3)c(N)c12`, 40.
The value for `COc1ccc(CNC(=O)c2sc3nc(OCc4cccnc4)cc(C)c3c2N)cc1` was 9; that for `Cc1cc(OCc2ccccn2)nc2sc(C(=O)NCc3cc(F)ccc3F)c(N)c12` was 41.
The value for `Cc1cc(OCCCN(C)C)nc2sc(C(=O)NCc3cc(F)ccc3F)c(N)c12` was 14; that for `Cc1cc(OCCN2CCOCC2)nc2sc(C(=O)NC(C)C)c(N)c12` was 36.
For `Cc1cc(C)c2c(N)c(C(=O)NCc3ccccc3)sc2n1`, the fold shift is 26.
